Assay results taken from US20240408114A1, “METHODS FOR PREVENTING AND TREATING ACUTE KIDNEY INJURY” (The Johns Hopkins University, priority 2021, published 2024).

Tests used:
[1] = test system: glutaminase; assay: Glutaminase activity in post-ischemic kidney tissues; type: in vivo, mouse; details: post-ischemic kidney tissues at 24 h after IRI; JHU083 1.83 mg/kg i.p. every other day; P=0.008
Method: To confirm that JHU083 suppressed glutamine-related enzymes in kidneys, glutaminase activities were measured in post-ischemic kidney tissues at 24 h after IRI.
(§1) Glutamine antagonist, JHU083 was synthesized as previously described, Rais et al., 2016, and dissolved in 50 mM […] 4-(2-hydroxyethyl)-1-piperazineethanesulfonic acid (HEPES) buffered 0.9% saline. Aliquot stocks were stored at −80° C. and thawed right before injection. Before the IRI surgery or cisplatin injection, mice were administered 1.83 mg/kg JHU083 (equivalent to 1 mg/kg DON) or vehicle (50 mM HEPES buffered 0.9% saline) every other day via intraperitoneal injection. Following 4 consecutive dosages, mice underwent IRI surgery or cisplatin injection. The last additional dose was given at 24 h after IRI or cisplatin injection. This dosage regimen was chosen based on efficiency and toxicity data from a previous study. Hollinger et al., 2020.
Glutaminase activity measurements in kidney samples were adapted from previously described protocols. Engler et al., 2002. […] [^3H]-Glutamate, the reaction product, was then eluted with 0.1 N HCl and analyzed for radioactivity using Perkin Elmer's TopCount instrument in conjunction with their 96-well LumaPlates. […]

[2] = test system: ischemic AKI in C57BL/6J mice; assay: Ischemic AKI model (bilateral IRI 30 min): kidney function and histology; type: in vivo, mouse
Method: Mice were treated with 1.83 mg/kg of JHU083 or vehicle every other day via intraperitoneal injection and underwent bilateral IRI surgery on day 7 after the initial injection. […] Hollinger et al., 2020. Mice were followed up until 72 h after IRI, and T cells isolated from post-ischemic kidneys were studied (FIG. 14A).
Mice were anesthetized with an intraperitoneal injection of pentobarbital (75 mg/kg; Akorn, Lake Forest, IL). After shaving of abdominal hair, mice were placed onto a thermostatically controlled heating table. Abdominal midline incision was performed, and both renal pedicles were dissected and clamped for 30 min with a microvascular clamp (Roboz Surgical Instrument, Gaithersburg, MD). After 30 min, microvascular clamps were released from renal pedicles and the kidneys were inspected to confirm reperfusion. During the surgery, mice were kept well hydrated with 1 mL of warm sterile 0.9% saline. After being sutured, mice were allowed to recover with free access to chow and water. Sham surgeries were performed identically without clamping of renal pedicles.
(§2) Blood samples were obtained at 0, 24, 48, and 72 h after IRI or cisplatin injection through tail vein collection. Plasma creatinine concentration was measured by Cobas Mira Plus automated analyzer system (Roche, Indianapolis, IN) with creatinine reagent (Pointe Scientific Inc, Canton, MI).
(§3) At 24 h after IRI and 72 h after cisplatin injection, mice were anesthetized with ketamine (130 mg/kg; VetOne, Boise, ID) and xylazine (7 mg/kg; Akorn) intraperitoneal injection. After exsanguination, kidneys were collected and fixed with 10% buffered formalin followed by paraffin embedding. Tissue sections were stained with hematoxylin and eosin. A renal pathologist scored necrotic tubules in a blinded fashion.
as §1

[3] = test system: cisplatin-induced AKI in mice; assay: Cisplatin-induced (nephrotoxic) AKI model: kidney function and histology; type: in vivo, mouse
Method: Given the significant protective outcomes in ischemic AKI, we subsequently tested the effect of glutamine blockade on a nephrotoxic AKI model, which is another common etiology of clinical AKI. After pretreatment with JHU083 or vehicle, 25 mg/kg of cisplatin was injected intraperitoneally. T cells were isolated and studied after 72 h after cisplatin treatment (FIG. 16A).
Cisplatin (cis-diammineplatinum II dichloride; Sigma-Aldrich, St. Louis, MO) was freshly dissolved into 0.9% saline (1 mg/mL) on the day of injection. The dissolved solution was incubated in water bath at 40° C. for 10 min to achieve complete dissolution. A single 25 mg/kg dose of cisplatin was injected intraperitoneally.
as §2, §3
as §1, with “This dosage regimen was chosen based on efficiency and toxicity data from a previous study. Hollinger et al., 2020.” left out

[4] = mouse, in vivo, ip, 1.83 mg/kg
Method: as §1

## CCOC(=O)[C@H](CCC(=O)C=[N+]=[N-])NC(=O)[C@@H](N)CC(C)C [JHU083]
[1]
  glutaminase activities, decrease: 29%
[2]; 24 h after IRI, JHU083 1.83 mg/kg i.p. every other day, mean±SEM, vehicle 1.61±0.18, P=0.026
  plasma creatinine at 24 h: 1.07 ± 0.14 mg/dL
[2]; 24 h after IRI, vehicle 6.6±0.9, P=0.039
  cortical necrotic tubules: 4.2±0.5%
[2]; 24 h after IRI, vehicle 69.7±3.1, P=0.093
  medullary necrotic tubules: 58.3±5.7%
[2]; Example 1, FIG. 7, treated before inducing AKI
  renal injury: attenuated renal injury at 24 hr
[3]; 72 h after cisplatin 25 mg/kg i.p., JHU083 pretreatment, vehicle 2.28±0.34, P=0.016
  plasma creatinine at 72 h: 1.17 ± 0.24 mg/dL
[3]; 72 h after cisplatin, vehicle 57.1±3.7, P<0.001
  medullary necrotic tubules: 19.9±4.5%
[3]; 72 h after cisplatin, vehicle 58.1±4.9, P=0.243
  cortical necrotic tubules: 20.9±7.0%
[4]
  body weight: no significant differences between groups
